This note sets out measurements from patent US20230083012A1, “DIHYDROPYRIMIDINE DERIVATIVES AND USES THEREOF IN THE TREATMENT OF HBV INFECTION OR OF HBV-INDUCED DISEASES” (priority 2019, published 2023).

Read-outs that look alike come from different tables or passages of the source.

The test system of one series is HBV. Put plainly: Anti-HBV activity in HepG2.2.15 cells (HBV DNA in culture medium by qPCR). In kind it is cell-based. The following applies: HepG2.2.15 cells, 6 days treatment, HBV DNA in culture medium quantified by real-time PCR, read-out: EC50. Summed up:
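Secreted HBV DNA was measured by real-time PCR after 6-day compound exposure of HepG2.2.15 cells (2% FBS, 37 °C, re-dosed after 3 days), giving EC50 from 8-point 1:3 series starting at 10 or 1 uM. Cytotoxicity (CC50) run separately at lower cell density, top 100 uM.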
For orientation: Real-time PCR tracks product formation cycle by cycle.

Series [1] in a line: Cytotoxicity determination in HepG2.2.15 cells (CCK-8 cell viability). The following applies: human, 6 days treatment, CCK-8 assay, highest concentration 100 uM. The class given is cell-based. In short, it runs like this:
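Viability measured by CCK-8 absorbance (450 nm, 630 nm reference, 2.5 h at 37° C) after six days of treatment, medium and compound renewed on day 3. Top concentration 100 uM, eight threefold dilutions in triplicate; cells plated at 5,000/well in 2% FBS medium; CC50 derived.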
For orientation: Tetrazolium assays rely on reduction of a dye to a coloured formazan, in cell work by metabolically active cells.

Where [2] appears, read: Hepatitis B virus, HepG2.2.15, 144 h.

The term EC50 denotes the midpoint of the concentration-response curve. What is called CC50 is the concentration at which the toxic effect on the cells reaches its halfway point. The low end stands for greater toxicity to the cells, the high end for lower toxicity to the cells. With `COC(=O)C1=C(CN2CC(F)(F)[C@H]3[C@@H]2CCN3CCC(C)(C)C(=O)O)NC(c2nccs2)=N[C@H]1c1ccc(F)c(F)c1Cl` (single isomer, unassigned) [Compound 126], the half-maximal effective concentration (EC50) with HBV (setting [2]) turned out to be 0.0034 µM. This molecule also gave a cytotoxic concentration (CC50) at 6 days in series [1] of 27.2 µM.
Consider `COC(=O)C1=C(CN2CC(F)(F)[C@H]3[C@@H]2CCN3CCC(C)(C)C(=O)O)NC(c2nccs2)=N[C@H]1c1ccc(F)cc1Cl` (single isomer, unassigned) [Compound 127, 4-((cis)-4-((6-(2-Chloro-4-fluorophenyl)-5-(methoxycarbonyl)-2-(thiazol-2-yl)-3,6-dihydropyrimidin-4-yl)methyl)-6,6-difluorohexahydropyrrolo[3,2-b]pyrrol-1(2H)-yl)-2,2-dimethylbutanoic acid], for which the EC50 with HBV (setting [2]) was 0.0016 µM. Besides, in series [1], the CC50 at 6 days worked out at 47.2 µM.
The like results for `COC(=O)C1=C(CN2CC(F)(F)[C@H]3[C@@H]2CCN3CCC(C)(C)C(=O)O)NC(c2nccs2)=N[C@H]1c1cccc(F)c1Cl` (single isomer, unassigned) [Compound 128, 4-((cis)-4-((6-(2-Chloro-3-fluorophenyl)-5-(methoxycarbonyl)-2-(thiazol-2-yl)-3,6-dihydropyrimidin-4-yl)methyl)-6,6-difluorohexahydropyrrolo[3,2-b]pyrrol-1(2H)-yl)-2,2-dimethylbutanoic acid] were, in that order, 0.0008 µM and 40.1 µM.
The like results for `CCOC(=O)C1=C(CN2CC(F)(F)[C@H]3[C@@H]2CCN3CC[C@H]2C[C@@H](C(=O)O)C2)NC(c2nccs2)=N[C@H]1c1cccc(F)c1C` (single isomer, unassigned) [Compound 129A] were, in that order, 0.0077 µM and 10.3 µM.
The like results for `CCOC(=O)C1=C(CN2CC(F)(F)[C@H]3[C@@H]2CCN3CC[C@H]2C[C@H](C(=O)O)C2)NC(c2nccs2)=N[C@H]1c1cccc(F)c1C` (single isomer, unassigned) [Compound 129B] were, in that order, 0.0029 µM and 12.4 µM.
`CCOC(=O)C1=C(CN2CC(F)(F)[C@H]3[C@@H]2CCN3C[C@@H]2CC[C@@H]2C(=O)O)NC(c2nccs2)=N[C@H]1c1cccc(F)c1C` (single isomer, unassigned) [Compound 130A]: the EC50 in the series with HBV (setting [2]) came out at 0.0076 µM. In series [1], this molecule yielded a CC50 at 6 days of 22.4 µM.
The like results for `CCOC(=O)C1=C(CN2CC(F)(F)[C@H]3[C@@H]2CCN3C[C@H]2CC[C@H]2C(=O)O)NC(c2nccs2)=N[C@H]1c1cccc(F)c1C` (single isomer, unassigned) [Compound 130B] were, in that order, under 0.0005 µM and 18.2 µM.
As to `COC(=O)C1=C(CN2CC(F)(F)[C@H]3[C@@H]2CCN3C[C@@H](C)C(=O)O)NC(c2nccs2)=N[C@H]1c1cccc(F)c1C` (single isomer, unassigned) [Compound 131A, 3-((cis)-6,6-Difluoro-4-(((S*)-6-(3-fluoro-2-methylphenyl)-5-(methoxycarbonyl)-2-(thiazol-2-yl)-3,6-dihydropyrimidin-4-yl)methyl)hexahydropyrrolo[3,2-b]pyrrol-1(2H)-yl)-2-methylpropanoic acid], the EC50 with HBV was found to be 0.0005 µM. The cytotoxic concentration (CC50) at 6 days in series [1] was determined as 44.6 µM.
In the case of `COC(=O)C1=C(CN2CC(F)(F)[C@H]3[C@@H]2CCN3C[C@@H](C)C(=O)O)NC(c2nccs2)=N[C@H]1c1cccc(F)c1Cl` (single isomer, unassigned) [Compound 132A, 3-((cis)-4-((6-(2-Chloro-3-fluorophenyl)-5-(methoxycarbonyl)-2-(thiazol-2-yl)-3,6-dihydropyrimidin-4-yl)methyl)-6,6-difluorohexahydropyrrolo[3,2-b]pyrrol-1(2H)-yl)-2-methylpropanoic acid], the EC50 in the series with HBV (setting [2]) was under 0.0005 µM. The cytotoxic concentration (CC50) at 6 days in series [1] turned out to be 40.7 µM.
The like results for `COC(=O)C1=C(CN2CC(F)(F)[C@H]3[C@@H]2CCN3C[C@H](C)C(=O)O)NC(c2nccs2)=N[C@H]1c1cccc(F)c1Cl` (single isomer, unassigned) [Compound 132B, 3-((cis)-4-((6-(2-Chloro-3-fluorophenyl)-5-(methoxycarbonyl)-2-(thiazol-2-yl)-3,6-dihydropyrimidin-4-yl)methyl)-6,6-difluorohexahydropyrrolo[3,2-b]pyrrol-1(2H)-yl)-2-methylpropanoic acid] were, in that order, 0.0107 µM and 71.8 µM.
Consider `COC(=O)C1=C(CN2CC(F)(F)[C@H]3[C@@H]2CCN3C[C@@H](C)C(=O)O)NC(c2nccs2)=N[C@H]1c1ccc(F)cc1Cl` (single isomer, unassigned) [Compound 133A, 3-((cis)-4-((6-(2-Chloro-4-fluorophenyl)-5-(methoxycarbonyl)-2-(thiazol-2-yl)-3,6-dihydropyrimidin-4-yl)methyl)-6,6-difluorohexahydropyrrolo[3,2-b]pyrrol-1(2H)-yl)-2-methylpropanoic acid], for which the EC50 in the series with HBV (setting [2]) is under 0.0005 µM. Besides, in series [1], the CC50 at 6 days was found to be 41.7 µM.
The like results for `COC(=O)C1=C(CN2CC(F)(F)[C@H]3[C@@H]2CCN3C[C@@H](C)C(=O)O)NC(c2nccs2)=N[C@H]1c1ccc(F)c(F)c1Cl` (single isomer, unassigned) [Compound 134A, 3-((cis)-4-((6-(2-chloro-3,4-difluorophenyl)-5-(methoxycarbonyl)-2-(thiazol-2-yl)-3,6-dihydropyrimidin-4-yl)methyl)-6,6-difluorohexahydropyrrolo[3,2-b]pyrrol-1(2H)-yl)-2-methylpropanoic acid] were, in that order, under 0.0005 µM and 26.9 µM.
With `COC(=O)C1=C(CN2CC(F)(F)[C@H]3[C@@H]2CCN3C[C@H](C)C(=O)O)NC(c2nccs2)=N[C@H]1c1ccc(F)c(F)c1Cl` (single isomer, unassigned) [Compound 134B, 3-((cis)-4-((6-(2-chloro-3,4-difluorophenyl)-5-(methoxycarbonyl)-2-(thiazol-2-yl)-3,6-dihydropyrimidin-4-yl)methyl)-6,6-difluorohexahydropyrrolo[3,2-b]pyrrol-1(2H)-yl)-2-methylpropanoic acid], the concentration giving a half-maximal response (EC50) with HBV (setting [2]) was found to be 0.0043 µM. This molecule also yielded a CC50 at 6 days in series [1] of 24.2 µM.
The like results for `CCOC(=O)C1=C(CN2CC(F)(F)[C@H]3[C@@H]2CCN3C[C@@H](C)C(=O)O)NC(c2nccs2)=N[C@H]1c1ccc(F)cc1Cl` (single isomer, unassigned) [Compound 135A, 3-((cis)-4-((6-(2-chloro-4-fluorophenyl)-5-(ethoxycarbonyl)-2-(thiazol-2-yl)-3,6-dihydropyrimidin-4-yl)methyl)-6,6-difluorohexahydropyrrolo[3,2-b]pyrrol-1(2H)-yl)-2-methylpropanoic acid] were, in that order, 0.0024 µM and 25.9 µM.
For `CCOC(=O)C1=C(CN2CC(F)(F)[C@H]3[C@@H]2CCN3C[C@H](C)C(=O)O)NC(c2nccs2)=N[C@H]1c1ccc(F)cc1Cl` (single isomer, unassigned) [Compound 135B, 3-((cis)-4-((6-(2-chloro-4-fluorophenyl)-5-(ethoxycarbonyl)-2-(thiazol-2-yl)-3,6-dihydropyrimidin-4-yl)methyl)-6,6-difluorohexahydropyrrolo[3,2-b]pyrrol-1(2H)-yl)-2-methylpropanoic acid], the concentration for a half-maximal effect (EC50) in the series with HBV (setting [2]) amounted to 0.0099 µM. The molecule further registered a 50% cytotoxic concentration (CC50) at 6 days in series [1] of 36.3 µM.
The like results for `COC(=O)C1=C(CN2CC(F)(F)[C@H]3[C@@H]2CCN3CCC(C)(C)C(=O)O)NC(c2nccs2)=N[C@H]1c1cccc(F)c1C` (single isomer, unassigned) [Compound 136, 4-((cis)-6,6-difluoro-4-((6-(3-fluoro-2-methylphenyl)-5-(methoxycarbonyl)-2-(thiazol-2-yl)-3,6-dihydropyrimidin-4-yl)methyl)hexahydropyrrolo[3,2-b]pyrrol-1(2H)-yl)-2,2-dimethylbutanoic acid] were, in that order, 0.0021 µM and 34.4 µM.
The like results for `[2H]C([2H])(CC(C)(C)C(=O)O)N1CC[C@H]2[C@@H]1C(F)(F)CN2CC1=C(C(=O)OCC)[C@H](c2cccc(F)c2C)N=C(c2nccs2)N1` (single isomer, unassigned) [Compound 137] were, in that order, 0.001 µM and 21.8 µM.
The like results for `CCOC(=O)C1=C(CN2CC(F)(F)[C@H]3[C@@H]2CCN3CCC(C)(C)C(=O)O)NC(c2nccs2)=N[C@H]1c1ccc(F)c(F)c1Cl` (single isomer, unassigned) [Compound 138, 4-((cis)-4-((6-(2-chloro-3,4-difluorophenyl)-5-(ethoxycarbonyl)-2-(thiazol-2-yl)-3,6-dihydropyrimidin-4-yl)methyl)-6,6-difluorohexahydropyrrolo[3,2-b]pyrrol-1(2H)-yl)-2,2-dimethylbutanoic acid] were, in that order, 0.0005 µM and 14.5 µM.
Regarding `CCOC(=O)C1=C(CN2CC(F)(F)[C@H]3[C@@H]2CCN3CCC(C)(C)C(=O)O)NC(c2nccs2)=N[C@@H]1c1ccc(F)c(F)c1C` (single isomer, unassigned) [Compound 139, 4-((cis)-4-((6-(3,4-difluoro-2-methylphenyl)-5-(ethoxycarbonyl)-2-(thiazol-2-yl)-3,6-dihydropyrimidin-4-yl)methyl)-6,6-difluorohexahydropyrrolo[3,2-b]pyrrol-1(2H)-yl)-2,2-dimethylbutanoic acid], the EC50 with HBV (setting [2]) was 0.0006 µM. Further, the CC50 at 6 days in series [1] was found to be 16.1 µM.
